# Columns and labels:
# hG9a = target: T1, hG9a (Homo sapiens, UniProt Q96KQ7); experiment: Methylation of HA-hG9a in Cos-7 cells (pan met-K immunoprecipitation/immunoblot); format: cell-based, African green monkey; details: Cos-7 cells expressing HA-hG9a N, 2 μM, 24 h
# T1 construct: transfected with a plasmid encoding full length HA-hG9a and treated with 2 μM UNC0646; expressed in transfected cells; host or cells: Cos-7
# Description: Cells were transiently transfected (where indicated) using Lipofectamine 2000 (Invitrogen) with 5 μg each of the indicated plasmids according to the manufacturer's protocol. […] Protein extracts were incubated with 1 μg of the indicated primary antibodies overnight at 4° C. with shaking. Protein A/G Plus Agarose (Santa Cruz sc-2003) beads were added and the mixture was incubated 2 hr at 4° C. The immunoprecipitates were separated on SDS-PAGE. Immunoblotting was conducted with primary antibodies against HA epitope (3F10 Roche Applied Science); G9a (G6919), FLAG (F1804), (3-actin (A5441), or GAPDH (G9545) from Sigma; aurora kinase B (ab2254), HP1γ (ab10480), HP1γ (ab56978), phospho-593-HP1γ (ab45270) or pan methyllysine (ab23366) from Abcam; GR (sc-8992) from Santa Cruz; GLP (09-078), or pan phospho-threonine (AB1607) from Millipore; phospho-S211-GR (#4161), H3K9me3 (#13969), H3S10ph (#53348), Histone H3 (#4499) from Cell signaling; or E-cadherin (610182) from BD transduction laboratories. Secondary antibodies from Santa Cruz Biotechnology (anti-rat) and Promega (anti-rabbit and anti-mouse) were used for chemiluminescence detection using Super Signal West Dura (Thermo Scientific) for proteins with low expression levels and ECL prime detection reagent (Amersham) for all other proteins according to the manufacturers' instructions. In immunoprecipitation experiments 3% of the input of each sample was analyzed by immunoblot using the antibodies listed.
# Lysates were immunoprecipitated (IP) with pan met-K antibody and immunoblotted with HA antibody (top), or the usage of the two antibodies was reversed (bottom). Expression of HA-tagged proteins and β-actin (loading control) in the unfractionated extracts is shown at the bottom (Input). For FIG. 17D, Cos-7 cells were transfected with a plasmid encoding full length HA-hG9a and treated with 2 μM UNC0646 or vehicle DMSO for 24 h. Lysates were immunoprecipitated with pan met-K antibody and immunoblotted with HA antibody (top), or the usage of the two antibodies was reversed (bottom).
# Lysates were immunoprecipitated with pan met-K antibody and immunoblotted with HA antibody (top).
# [1] = test system: G9a and GLP phosphorylation; experiment: Phosphorylation of HA-hG9a or HA-hGLP in Cos-7 cells (pan ph-T immunoprecipitation); format: cell-based, monkey; details: 2 μM, 24 h
# Description: Cos-7 or A549 cells were seeded on 10-cm dishes the day before transfection. Cells were transiently transfected (where indicated) using Lipofectamine 2000 (Invitrogen) with 5 μg each of the indicated plasmids according to the manufacturer's protocol. At 48 h after transfection, cells were treated (or not) with dex for the indicated time period, and cell extracts were prepared in RIPA buffer (50 mM Tris-HCl, pH 8, 150 mM NaCl, 1 mM EDTA, 1% NP-40 and 0.25% deoxycholate) supplemented with protease inhibitor tablets (Roche Molecular Biochemicals) and phosphatase inhibitors (1 mM NaF, 1 mM Na3VO4 and 1 mM β-glycerophosphate). Protein extracts were incubated with 1 μg of the indicated primary antibodies overnight at 4° C. with shaking. Protein A/G Plus Agarose (Santa Cruz sc-2003) beads were added and the mixture was incubated 2 hr at 4° C. The immunoprecipitates were separated on SDS-PAGE. […] In immunoprecipitation experiments 3% of the input of each sample was analyzed by immunoblot using the antibodies listed. […]
# EHMT2 phosphorylation = experiment: Phosphorylation of EHMT2 in NALM-6 cells (pan ph-T immunoprecipitation, EHMT2 immunoblot); format: cell-based, human; details: NALM-6, 0.75 μM ZM447439, 24 h
# Description: Cells were treated as indicated, and cell extracts were prepared in RIPA buffer ([…] Tris-HCl, pH 8, 150 mM NaCL, 1 mM EDTA, 1% NP-40, and 0.25% deoxycholate) supplemented with protease inhibitor tablets (Roche Molecular Biochemicals) and phosphatase inhibitors (1 mM NaF, 1 mM Na3VO4, and 1 mM β-glycerophosphate). Protein extracts were incubated overnight at 4° C. with shaking with 1 μg of antibodies against EHMT2 (Sigma G6919), EHMT1 (Millipore 09-078), or pan phospho-threonine (Millipore AB1607). Protein A/G plus agarose beads (Santa Cruz sc-2003) were added, and the mixture was incubated 2 h at 4° C. The immunoprecipitates were separated on SDS-PAGE. […]
# FIGS. 48A, 48B, 48C, 48D, 48E, and 48F show the effect of AURKB inhibitors on EHMT2 phosphorylation and dex-induced cell death. […] In each condition, the value measured with dex was normalized to the fluorescence value measured with ethanol. Percentage of survival is shown as the mean±SEM of 4 independent experiments and p-values for individual dex concentrations were calculated using a paired t-test. *p≤0.05, **p≤0.01, * * *p≤0.001. […] EC50s were calculated as the concentration at which half the cells remained alive, compare to vehicle controls. Error bars depict the SEM of 4 independent experiments and p-value was calculated to compare ZM treatment to DMSO using a paired t-test **p≤0.01, * * *p≤0.001. […]
# T1 sequence (Q96KQ7 1-280): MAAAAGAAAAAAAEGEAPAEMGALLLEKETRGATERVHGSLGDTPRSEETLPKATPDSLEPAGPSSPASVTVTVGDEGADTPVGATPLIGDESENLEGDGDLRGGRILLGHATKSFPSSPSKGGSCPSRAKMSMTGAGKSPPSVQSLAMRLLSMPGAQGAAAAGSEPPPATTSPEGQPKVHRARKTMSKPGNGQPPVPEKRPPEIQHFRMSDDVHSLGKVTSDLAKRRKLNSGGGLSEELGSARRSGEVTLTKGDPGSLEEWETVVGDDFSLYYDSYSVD
Structure (SMILES),methylation of the N-terminal G9a fragment (hG9a),G9a and GLP phosphorylation signals [1],phosphorylation of EHMT2 (EHMT2 phosphorylation)
COc1cc2c(NC3CCN(C4CCCCC4)CC3)nc(N3CCCN(C(C)C)CC3)nc2cc1OCCCN1CCCCC1 [UNC0646],decreased,,
"COc1cc2c(Nc3ccc(NC(=O)c4ccccc4)cc3)ncnc2cc1OCCCN1CCOCC1 [ZM447439, N-[4-[[6-methoxy-7-(3-morpholin-4-ylpropoxy)quinazolin-4-yl]amino]phenyl]benzamide]",,decreased,reduced
